Some test systems named below: OVCAR-8 ovarian; HOP-62 NSCLC; LOX IMVI melanoma; RPMI-8226 leukemia; OVCAR-4 ovarian; NCI-H522 lung; HCT-15 colon; UACC-257 melanoma; MALME-3M melanoma; IGROV1 ovarian; MOLT-4 leukemia; SK-OV-3 ovarian; HL-60(TB) leukemia; RXF 393 renal; CCRF-CEM leukemia; NCI-H460 lung; K-562 leukemia; EKVX NSCLC; NCI-H23 lung; SK-MEL-28 melanoma.
Experiment in all cases: NCI anticancer screen, dose series, 48 h

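Test compounds were applied to cells in 96-well plates for 48 hours at 5 doses. TGI denotes the concentration required for complete inhibition of growth.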 Bounds are passed on as bounds.

`CCCCN1C=CN2c3nc4cc(C)c(C)cc4n3C(C(=O)OC)=C(C(=O)OC)C12` (centres undefined): the TGI in the experiment with OVCAR-8 ovarian, in the experiment with HOP-62 NSCLC, with LOX IMVI melanoma, with RPMI-8226 leukemia, with OVCAR-4 ovarian and with NCI-H522 lung was over 100 µM in each case. Besides, the TGI in the experiment on HCT-15 colon, in the experiment on UACC-257 melanoma, in the experiment on MALME-3M melanoma, in the experiment on IGROV1 ovarian, with MOLT-4 leukemia and in the experiment with SK-OV-3 ovarian was over 100 µM in each case. For the same molecule, the TGI in the experiment with HL-60(TB) leukemia, in the experiment on RXF 393 renal, in the experiment on CCRF-CEM leukemia, in the experiment with NCI-H460 lung, in the experiment with K-562 leukemia and in the experiment on EKVX NSCLC was over 100 µM in each case. The TGI in the experiment with NCI-H23 lung was over 100 µM.

`O=C1NC(=O)C(CCO)(c2ccccc2)C(=O)N1`: the TGI is over 100 µM with OVCAR-8 ovarian; over 100 µM with HOP-62 NSCLC; over 31.6 µM with LOX IMVI melanoma; over 100 µM in the experiment with OVCAR-4 ovarian; over 100 µM in the experiment on NCI-H522 lung; over 100 µM in the experiment on HCT-15 colon. In addition, the TGI in the experiment on UACC-257 melanoma, in the experiment on MALME-3M melanoma, with IGROV1 ovarian, with SK-MEL-28 melanoma, in the experiment on MOLT-4 leukemia and with SK-OV-3 ovarian was over 100 µM in each case. The TGI in the experiment with HL-60(TB) leukemia, with RXF 393 renal, with CCRF-CEM leukemia, in the experiment on NCI-H460 lung, in the experiment on K-562 leukemia and in the experiment on EKVX NSCLC was over 100 µM in each case. The TGI in the experiment with NCI-H23 lung was over 100 µM.

As to `C=CCn1c(=O)n(CC=C)c(=O)n(CC=C)c1=O`, the TGI in the experiment with OVCAR-8 ovarian, in the experiment with HOP-62 NSCLC, with LOX IMVI melanoma, in the experiment on RPMI-8226 leukemia, with NCI-H522 lung and in the experiment on HCT-15 colon was over 100 µM each time. For the same molecule, the TGI in the experiment on UACC-257 melanoma, in the experiment on MALME-3M melanoma, with IGROV1 ovarian, in the experiment with SK-MEL-28 melanoma, in the experiment on MOLT-4 leukemia and in the experiment on SK-OV-3 ovarian was over 100 µM each time. The TGI with HL-60(TB) leukemia, with RXF 393 renal, with CCRF-CEM leukemia, in the experiment with NCI-H460 lung, with K-562 leukemia and with EKVX NSCLC was over 100 µM in each case. Besides, the TGI in the experiment on NCI-H23 lung is over 100 µM.

On to `COC(=O)C1OC(Oc2cc(O)c3c(=O)cc(-c4ccc(O)cc4)oc3c2)C(O)C(O)C1O` (centres undefined), for which the TGI with OVCAR-8 ovarian, with HOP-62 NSCLC, in the experiment on LOX IMVI melanoma, with RPMI-8226 leukemia, in the experiment on OVCAR-4 ovarian and in the experiment on NCI-H522 lung was over 100 µM throughout. Moreover, the TGI in the experiment with HCT-15 colon, in the experiment with UACC-257 melanoma, with MALME-3M melanoma, in the experiment with IGROV1 ovarian, in the experiment with SK-MEL-28 melanoma and with MOLT-4 leukemia was over 100 µM throughout. Further, the TGI in the experiment on SK-OV-3 ovarian, in the experiment on HL-60(TB) leukemia, in the experiment on RXF 393 renal, with CCRF-CEM leukemia, in the experiment on NCI-H460 lung and with K-562 leukemia was over 100 µM throughout. For the same molecule, the TGI with EKVX NSCLC and in the experiment on NCI-H23 lung was over 100 µM throughout.

As for `COC(=O)c1ccc(/C=C2\N=C(C)OC2=O)cc1`, the TGI with OVCAR-8 ovarian, in the experiment on HOP-62 NSCLC, in the experiment with LOX IMVI melanoma, in the experiment on RPMI-8226 leukemia, in the experiment with OVCAR-4 ovarian and in the experiment on NCI-H522 lung was over 100 µM in each case. Further, the TGI with HCT-15 colon, in the experiment on IGROV1 ovarian, in the experiment on SK-MEL-28 melanoma, with MOLT-4 leukemia, in the experiment with SK-OV-3 ovarian and in the experiment with HL-60(TB) leukemia was over 100 µM each time. The TGI in the experiment with CCRF-CEM leukemia, in the experiment with NCI-H460 lung, with K-562 leukemia, in the experiment with EKVX NSCLC and in the experiment on NCI-H23 lung was over 100 µM in each case.

On to `CN(C)C(=O)NCCN1CCCCCc2ccccc21`, for which the TGI in the experiment with OVCAR-8 ovarian, in the experiment on HOP-62 NSCLC, in the experiment on LOX IMVI melanoma, in the experiment on RPMI-8226 leukemia, in the experiment on OVCAR-4 ovarian and in the experiment with NCI-H522 lung was over 100 µM in each case. Moreover, the TGI in the experiment on HCT-15 colon, with UACC-257 melanoma, in the experiment with MALME-3M melanoma, with IGROV1 ovarian, in the experiment on SK-MEL-28 melanoma and in the experiment with MOLT-4 leukemia was over 100 µM in each case. For the same molecule, the TGI in the experiment with SK-OV-3 ovarian, in the experiment on HL-60(TB) leukemia, in the experiment with RXF 393 renal, in the experiment on CCRF-CEM leukemia, with NCI-H460 lung and with K-562 leukemia was over 100 µM each time. The TGI in the experiment on EKVX NSCLC and in the experiment with NCI-H23 lung was over 100 µM in each case.

Regarding `O=C(CC(c1ccccc1)N1CCCCC1)c1ccccc1` (centres undefined), the TGI in the experiment with OVCAR-8 ovarian was 33.4 µM; in the experiment on HOP-62 NSCLC, 33.9 µM; with LOX IMVI melanoma it was 20.6 µM; with RPMI-8226 leukemia, 5.23 µM; with OVCAR-4 ovarian it was 40.2 µM; with NCI-H522 lung, 28.6 µM. In addition, the TGI in the experiment on HCT-15 colon was determined as 36.6 µM; in the experiment with UACC-257 melanoma, 27.8 µM; in the experiment on MALME-3M melanoma, 30.7 µM; in the experiment on IGROV1 ovarian it was 29.1 µM; with SK-MEL-28 melanoma it was 32.4 µM; in the experiment on MOLT-4 leukemia it was 3.92 µM. In addition, the TGI in the experiment with SK-OV-3 ovarian was 31.4 µM; in the experiment with HL-60(TB) leukemia it was 33.7 µM; in the experiment with RXF 393 renal, 33.6 µM; in the experiment on CCRF-CEM leukemia, 4.69 µM; in the experiment with NCI-H460 lung it was 26.6 µM; with K-562 leukemia it was 8.6 µM. Further, the TGI was found to be 34.5 µM in the experiment with EKVX NSCLC and 31.6 µM in the experiment on NCI-H23 lung.

For the origin of these results see PubChem BioAssay (NCI).
